Laboratory results as given in patent US9492554B2, “Methods and compositions related to viral inhibition” (Clemson University Research Foundation (CURF), priority 2009, dated 2016).

Legend:
HIV-1 TAR RNA = HIV-1 TAR RNA competition FRET binding assay (Tat peptide probe); conditions: 100 nM TAR RNA, 100 nM Tat peptide, 25° C., 60 min
Description: Before used, HIV-1 TAR RNA (5′-GGC AGA UCUGAG CCU GGG AGC UCU CUG CC-3′, Thermo Scientific) in 10 μM batch in sterile water was heated to 95° C. for 4.5 min, and then cooled rapidly in ice bath for 5 min. This snap-cooling causes the RNA to adopt the kinetically favored hairpin rather than thermodynamically favored duplexes.
The relative affinity of each polyamine for HIV-1 TAR RNA was determined using Fluorescence Resonance Energy Transfer (FRET)-based competitive binding assay with a fluorescein-labeled HIV-1 Tat peptide as described in the literature. The fluorescence experiments were performed with a Spectra Max Fluorimeter (Molecular Devices) at 25° C., with excitation and emission wavelengths of 495 and 570 nm, respectively. All samples were prepared in 96 well plates in 1×TK buffer (50 mM Tris, 20 mM KCl, pH=7.4) with 0.1% Trixton-100 (Sigma).
To a solution of 100 nM HIV-1 TAR RNA and 100 nM fluorescein-labeled HIV-1 Tat peptide, appropriate concentrations (0 nM to 100 μM) of the antagonists were added at 25° C.; total volume of the incubation solution was 80 μL. After 60 min, fluorescence changes of the sample solution were determined by the Spectra Max Fluorimeter Detector.

TAR RNA = assay: UV melting of TAR RNA in presence of ligands (Tm, ΔTm); assay type: binding, HIV-1; conditions: for ΔTm: Melting point stabilization of HIV-TAR RNA by Neo Neo dimers, Table 11
Description: The reactions were done in the presence of 10 mM sodium cacodylate, 0.5 mM EDTA, 0.1 mM MgCl2 pH 7.0. The heating rate was 0.3° C./min.
UV melting studies of TAR were performed in the presence and absence of various ligands (FIG. 13).

Compound | IC50 (HIV-1 TAR RNA; Table 17) | IC50 (HIV-1 TAR RNA; Table 18) | also measured
CN1CCN(c2ccc3nc(-c4ccc(OCc5cn(CCCCCCn6cc(CCCCc7cn(C[C@H]8OC(OC9C(O)[C@H](N)CC(N)[C@H]9O[C@H]9OC(CN)[C@@H](O)C(O)C9N)C(O)C8O[C@H]8OC(CN)[C@@H](O)C(O)C8N)nn7)nn6)nn5)cc4)[nH]c3c2)CC1 (stereo partly drawn) [DPA115] | 99.4 ± 21 µM | – | ΔTm (° C.) (TAR RNA; TAR RNA with ligand vs control, Table 10): 4.1 °C; Tm (° C.) (TAR RNA; TAR RNA with ligand, control without ligand 69.3): 73.4 °C
NCC1O[C@H](OC2C(N)C[C@@H](N)C(O)[C@H]2O[C@@H]2O[C@H](Cn3cc(COCCCCCCCCOCc4cn(C[C@H]5O[C@@H](O[C@H]6C(O[C@H]7OC(CN)C(O)[C@H](O)C7N)C(N)C[C@@H](N)C6O)[C@@H](O)C5O[C@H]5O[C@@H](CN)C(O)C(O)C5N)nn4)nn3)C(O[C@H]3O[C@@H](CN)C(O)C(O)C3N)[C@@H]2O)C(N)[C@@H](O)C1O (stereo partly drawn) [DPA 58] | 0.061 ± 0.013 µM | – | ΔTm (TAR RNA): 5.4 °C
NCC1O[C@H](OC2C(N)C[C@@H](N)C(O)[C@H]2O[C@@H]2O[C@H](Cn3cc(COCCCCCCCCCCCCOCc4cn(C[C@H]5O[C@@H](O[C@H]6C(O[C@H]7OC(CN)C(O)[C@H](O)C7N)C(N)C[C@@H](N)C6O)[C@@H](O)C5O[C@H]5O[C@@H](CN)C(O)C(O)C5N)nn4)nn3)C(O[C@H]3O[C@@H](CN)C(O)C(O)C3N)[C@@H]2O)C(N)[C@@H](O)C1O (stereo partly drawn) [DPA 60] | 0.067 ± 0.009 µM | – | ΔTm (TAR RNA): 3.24 °C
NC[C@@H]1O[C@H](O[C@H]2[C@@H](O)[C@H](O[C@@H]3[C@@H](O)[C@H](N)C[C@H](N)[C@H]3O[C@H]3O[C@H](CO)[C@@H](O)[C@H](O)[C@H]3N)O[C@@H]2CO)[C@H](N)[C@@H](O)[C@@H]1O [DPA 502, paromomycin, reference compound] | – | 11.4 ± 3.3 µM | –
NC[C@H]1O[C@H](O[C@H]2[C@H](O)[C@@H](O[C@H]3O[C@H](CO)[C@@H](O)[C@H](N)[C@H]3O)[C@H](N)C[C@@H]2N)[C@H](O)[C@@H](O)[C@@H]1O [DPA 503, kanamycin, reference compound] | – | 95.4 ± 20.4 µM | –
CN[C@@H]1C[C@H](N)[C@@H](O)[C@H](OC2O[C@H](CO)[C@H](O)[C@@H]3OC4(O[C@H](C(N)CO)[C@H](O)[C@H](O)[C@H]4O)O[C@@H]23)[C@H]1O (stereo partly drawn) [DPA 504, hygromycin, reference compound] | – | > 500 µM | –
lividomycin [DPA 507, reference compound] | – | 92.5 ± 21.9 µM | –
ribostamycin [DPA 508, reference compound] | – | 146 ± 38 µM | –
